This is an account of results in patent US5942405A, “Therapeutic and screening methods using C3a receptor and C3a” (priority 1997, dated 1999).

For one assay, the target named is T1, C3a Receptor (Homo sapiens, UniProt Q16581).
T1 sequence (Q16581 1-482 F151C): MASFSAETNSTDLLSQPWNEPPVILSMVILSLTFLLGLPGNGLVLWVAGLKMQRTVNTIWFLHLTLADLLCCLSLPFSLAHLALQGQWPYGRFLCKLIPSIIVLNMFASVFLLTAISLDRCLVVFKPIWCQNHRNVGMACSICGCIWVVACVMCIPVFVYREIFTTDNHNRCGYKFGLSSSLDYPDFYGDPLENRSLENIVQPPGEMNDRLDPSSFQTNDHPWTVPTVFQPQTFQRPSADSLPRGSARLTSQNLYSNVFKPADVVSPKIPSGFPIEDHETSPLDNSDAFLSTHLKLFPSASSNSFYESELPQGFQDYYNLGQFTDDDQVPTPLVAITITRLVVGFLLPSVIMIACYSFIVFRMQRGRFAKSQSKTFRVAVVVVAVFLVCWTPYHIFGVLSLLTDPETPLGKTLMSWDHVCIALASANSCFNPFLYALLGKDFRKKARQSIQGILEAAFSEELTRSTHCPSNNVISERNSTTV
Description: Electrophysiological response (Ca2+ mediated chloride currents, two electrode voltage clamp) of Xenopus oocytes injected with C3a Receptor cRNA. Type of assay: cell-based. Further details: cDNA encoding a complete orphan GPCR of 482 amino acids; expressed in transfected cells; host or cells: Xenopus laevis oocytes microinjected with cRNA, with or without U937 total RNA. The note with it: for electrophysiological response of oocytes expressing C3a Receptor: oocytes co-injected with C3a Receptor cRNA (10 ng) and U937 RNA (25 ng), ligands 10 nM. The method, then: (A) Electrophysiological response of Xenopus oocytes injected with cRNA for C3a Receptor (10 ng), total U937 RNA (25 ng), or a mixture of C3a Receptor (10 ng) and U937 RNA (25 ng) to 10 nM rC5a, 10 nM C3a analogue peptide, 10 nM platelet activating factor (PAF), 10 nM fMetLeuPhe. Inset, represents typical response of oocytes co-injected with C3a Receptor cRNA+U937 RNA to 10 nM C3a. (B) Electrophysiological response of oocytes injected with C5a-R cRNA (10 ng), U937 RNA (25 ng) or a mixture of C5a-R and U937 RNA, to 10 nM rC5a or 10 nM C3a analogue peptide. […] Calcium mobilization by Fura 2 loaded cells expressing C5a receptor (FIGS. 4A & 4C) or C3a Receptor (FIGS. 4B & 4D) in response to rC5a (10 nM, FIG. 4A or 100 nM, FIG. 4B) or C3a analogue peptide (1 uM, FIGS. 4C & 4D).
Capped cRNA transcripts were generated from linearized C3a Receptor and C5a-R plasmid DNA as previously described (Kumar, C. S., et al (1989) J. Biol. Chem. 264, 17939-17946) and suspended in sterile water at a concentration of 0.2 μg/μl. Ovarian lobes were surgically removed from adult female Xenopus laevis frogs and defolliculated Stage V oocytes were harvested by manual dissection (Smith, L. D., et al (1991) Methods in Cell Biology, 36, 45-54. Edited by B. K. Kay and H. B. Peng, Academic Press Inc., New York.). Oocytes were microinjected with C3a Receptor or C5a-R cRNA transcripts (10 ng/oocyte) with or without U937 total RNA (25 ng/oocyte) in a 50 nl volume using a Drummond microinjection apparatus and maintained in modified Barth's saline (Power, C. A., et al (1995) J. Biol. Chem., 270,19495-19500 ) at 18° C. Electrophysiological recordings from an average of 10 oocytes were made 48 h later at room temperature using the two electrode voltage clamp (Warner Instruments) technique. Membrane potentials were routinely clamped at -60 mV. Results represent average response determined in three separate experiments.
The chemotactic receptors for C5a and the fMLP-R have previously been functionally expressed in Xenopus laevis oocytes (Kroll, B., et al (1991) FEBS Lett. 291, 208-210; Murphy, P. M. & McDermott, D. (1991) J Biol. Chem. 266, 12560-12567; Murphy, P. M., Gallin, E. K., and Tiffany, H. L. (1990) J Immunol. 145, 2227-2234; Schultz, P., et al (1992) Cellular Signalling 4, 153-161) and, unlike all other GPCRs tested in this system, injection of cRNA for the cloned chemotactic receptors alone is insufficient to stimulate signal transduction in response to ligand binding (Kroll, B., et al (1991) FEBS Lett. 291, 208-210; Murphy, P. M. & McDermott, D. (1991) J Biol. Chem. 266, 12560-12567). Functional expression of both of these chemotactic receptors, as monitored by induction of Ca^2+ mediated chloride currents, requires the co-injection of a complimentary human factor which can be supplied by total RNA from myeloid or liver cells (Kroll, B., et al (1991) FEBS Lett. 291, 208-210; Murphy, P. M. & McDermott, D. (1991) J Biol. Chem. 266, 12560-12567). The co-factor is required for receptor-mediated signal transduction but not for expression of the C5a-R or fMLF-R on the surface of the oocytes (Murphy, P. M., et al (1990) J Immunol. 145, 2227-2234). […] Xenopus oocytes were used to functionally characterize C3a Receptor. […] Like the C5a-R and the fMLF-R, the response was dependent on the co-injection of a cofactor present in total HL-60 or U937 RNA. […] (FIG. 3B). Both the C5a-R as well as C3a Receptor elicited in oocytes a promiscuous response to the two anaphylatoxins.
A general note: In two-electrode clamp one electrode senses voltage and the other passes current.

The test system of another assay is C3a-R. The note with it: cited from earlier work.
The test system of the next assay is guinea pig ileal tissue. The note with it: C3a and C4a; cited from earlier work.

With `CSCC[C@H](NC=O)C(=O)N[C@@H](CC(C)C)C(=O)N[C@@H](Cc1ccccc1)C(=O)O` [fMLF, fMetLeuPhe], the “electrophysiological response of oocytes expressing C3a Receptor” value at C3a Receptor was “not”.
`CCCCCCCCCCCCCCCCOCC(COP(=O)([O-])OCC[N+](C)(C)C)OC(C)=O` (centres unmarked) [platelet activating factor]: the “electrophysiological response of oocytes expressing C3a Receptor” value on C3a Receptor is “not”.
Consider pertussis toxin, for which the “sensitivity of functional activity of the C3a-R to pertussis toxin” value with C3a-R was “sensitive”. Also, the “effect on response to the C3a peptide of oocytes co-injected with C3a Receptor and U937 RNA” value at C3a Receptor (response to C3a peptide, data not shown) is on record as “abolished”.

B1: C4a: 74-77 amino acid anaphylatoxins C3a, C4a and C5a (protein, UniProt P0C0L4 680-756, looked up)
C4a anaphylatoxin: NVNFQKAINEKLGQYASPTAKRCCQDGVTRLPMMRSCEQRAARVQQPDCREPFLSCCQFAESLRKKSRDKGQAGLQR
modifications: C4a anaphylatoxin
notes: 74-77 amino acid anaphylatoxins C3a, C4a and C5a
As for B1, the “cross desensitization of guinea pig ileal tissue” value in the assay on guinea pig ileal tissue is given as “cross desensitize”.
